Measured values as given in the CheMixHub viscosity set.

Assay: xn = mol fraction of the nth substance listed

CC(C)Cc1ccccc1 + COC(=O)c1ccccc1
viscosity [mPa·s], 101 kPa
Details | x2 = 0.1256 | x2 = 0.2427 | x2 = 0.355 | x2 = 0.4602 | x2 = 0.5572 | x2 = 0.6486 | x2 = 0.7454 | x2 = 0.8333 | x2 = 0.9166
303.15 K | 0.957 | 1.001 | 1.057 | 1.127 | 1.195 | 1.274 | 1.363 | 1.467 | 1.555
313.15 K | 0.824 | 0.862 | 0.908 | 0.961 | 1.011 | 1.075 | 1.145 | 1.215 | 1.288

CCC(C)CC + COC(C)(C)C
298.15 K, 101.33 kPa
Details | viscosity [mPa·s]
x2 = 0.0876 | 0.2925
x2 = 0.1993 | 0.2945
x2 = 0.2983 | 0.2972
x2 = 0.3943 | 0.3008
x2 = 0.5016 | 0.3049
x2 = 0.5934 | 0.3089
x2 = 0.6935 | 0.3139
x2 = 0.7963 | 0.3199
x2 = 0.8984 | 0.3268

CC(C)CN + COCCO
298.15 K, 101 kPa
Details | viscosity [mPa·s]
x2 = 0.05 | 0.614
x2 = 0.1001 | 0.666
x2 = 0.1511 | 0.719
x2 = 0.2 | 0.788
x2 = 0.2513 | 0.869
x2 = 0.2996 | 0.95
x2 = 0.3519 | 1.043
x2 = 0.4002 | 1.132
x2 = 0.4491 | 1.221
x2 = 0.4989 | 1.308
x2 = 0.5501 | 1.387
x2 = 0.6 | 1.457
x2 = 0.6521 | 1.52
x2 = 0.6999 | 1.567
x2 = 0.7502 | 1.608
x2 = 0.8 | 1.632
x2 = 0.8512 | 1.643
x2 = 0.9 | 1.641
x2 = 0.9492 | 1.609

O=C1CCCN1 + COCCO
298.15 K, 101 kPa
Details | viscosity [mPa·s]
x1 = 0.0049 | 1.544
x1 = 0.0127 | 1.567
x2 = 0.0059 | 14.01
x2 = 0.0144 | 13.59
x2 = 0.0218 | 13.27
x2 = 0.0326 | 12.77
x2 = 0.0446 | 12.37
x2 = 0.0689 | 11.33
x2 = 0.0849 | 10.74
x2 = 0.1078 | 10.07
x2 = 0.127 | 9.467
x2 = 0.1824 | 8.072
x2 = 0.2392 | 6.994
x2 = 0.2918 | 6.075
x2 = 0.3249 | 5.599
x2 = 0.3711 | 5.006
x2 = 0.4202 | 4.585
x2 = 0.5242 | 3.631
x2 = 0.5773 | 3.264
x2 = 0.6342 | 2.895
x2 = 0.6686 | 2.717
x2 = 0.7286 | 2.446
x2 = 0.7755 | 2.248
x2 = 0.8174 | 2.089
x2 = 0.8558 | 1.966
x2 = 0.9003 | 1.819
x2 = 0.9214 | 1.756
x2 = 0.9381 | 1.703
x2 = 0.9524 | 1.669
x2 = 0.9729 | 1.604

[Cl-].[Cl-].[Cl-].[Cl-].[Sn+4] + COc1ccccc1
viscosity [mPa·s], 101 kPa
Details | x2 = 0.5074 | x2 = 0.6728 | x2 = 0.782 | x2 = 0.8238 | x2 = 0.864 | x2 = 0.9558
293.15 K | 0.932 | 0.958 | 1.01 | 1.04 | 1.07 | 1.1
313.15 K | 0.724 | 0.732 | 0.746 | 0.765 | 0.779 | 0.811

Cc1cc(C)cc(C)c1 + CS(C)=O
viscosity [mPa·s], 101.3 kPa
Details | x2 = 0.0996 | x2 = 0.1961 | x2 = 0.3046 | x2 = 0.4024 | x2 = 0.5049 | x2 = 0.6057 | x2 = 0.7047 | x2 = 0.8055 | x2 = 0.9018
298.15 K | 0.699 | 0.772 | 0.865 | 1.018 | 1.168 | 1.28 | 1.367 | 1.508 | 1.711
303.15 K | 0.654 | 0.718 | 0.799 | 0.901 | 1.029 | 1.136 | 1.241 | 1.372 | 1.553
308.15 K | 0.616 | 0.674 | 0.747 | 0.831 | 0.935 | 1.036 | 1.135 | 1.266 | 1.42
